Literature values in patent US10190039B2, “Synthetic acid compositions alternatives to conventional acids in the oil and gas industry” (priority 2014, dated 2019).

Conditions: death in 2-3 minutes

For `Cl` [hydrogen chloride gas, hydrogen chloride], the “Level at which death can occur” value is given as 1300-2000 ppm.
